Test results as given in patent US10487348B2, “3-alpha-hydroxysteroid dehydrogenase mutants and process for the preparation of ursodeoxycholic acid” (Pharmazell GmbH, priority 2014, dated 2019).

Target: T1, Comamonas testosteroni 3α-HSDH, wild type, without His tag, SEQ ID NO:4 (Comamonas testosteroni, UniProt P80702)
T1 sequence (P80702 1-257): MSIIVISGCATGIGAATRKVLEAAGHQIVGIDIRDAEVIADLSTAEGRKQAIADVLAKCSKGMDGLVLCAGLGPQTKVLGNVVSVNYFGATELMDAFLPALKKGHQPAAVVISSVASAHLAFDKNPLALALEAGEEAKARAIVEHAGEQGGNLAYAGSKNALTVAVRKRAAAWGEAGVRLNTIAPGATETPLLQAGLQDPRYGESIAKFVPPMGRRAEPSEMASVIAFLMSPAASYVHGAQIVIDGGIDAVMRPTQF
Experiment: Michaelis-Menten kinetics of wild-type 3α-HSDH without His tag
Protocol: The activity of the 3α-HSDH and of the mutants was determined using a photometric assay, where the decrease in absorbance was measured at 340 nm over a period of 30 seconds.

SMILES: C[C@H](CCC(=O)O)[C@H]1CC[C@H]2[C@@H]3C(=O)C[C@@H]4CC(=O)CC[C@]4(C)[C@H]3CC(=O)[C@]12C [DHCA, dehydrocholic acid]
- vmax (Table 14, substrate DHCA, no tag, apparent values): 134 ± 3.8 U/mg
- residual activity (after increasing DHCA further above approximately 1 mM, substrate excess inhibition): 10-20%
